Measured values: article PMC7195871 (ACS synthetic biology, 2018)

What was measured:
[1] = biological target: T1, PCM-F (pivalyl-CoA mutase fusion protein) (Xanthobacter versatilis, UniProt A7IQE5+A7IQE6); assay: mutase conversion assay in crude E. coli lysate; type: biochemical; settings: vitamin B12-dependent mutase; without G-protein chaperone
T1 sequence (A7IQE5 1-559): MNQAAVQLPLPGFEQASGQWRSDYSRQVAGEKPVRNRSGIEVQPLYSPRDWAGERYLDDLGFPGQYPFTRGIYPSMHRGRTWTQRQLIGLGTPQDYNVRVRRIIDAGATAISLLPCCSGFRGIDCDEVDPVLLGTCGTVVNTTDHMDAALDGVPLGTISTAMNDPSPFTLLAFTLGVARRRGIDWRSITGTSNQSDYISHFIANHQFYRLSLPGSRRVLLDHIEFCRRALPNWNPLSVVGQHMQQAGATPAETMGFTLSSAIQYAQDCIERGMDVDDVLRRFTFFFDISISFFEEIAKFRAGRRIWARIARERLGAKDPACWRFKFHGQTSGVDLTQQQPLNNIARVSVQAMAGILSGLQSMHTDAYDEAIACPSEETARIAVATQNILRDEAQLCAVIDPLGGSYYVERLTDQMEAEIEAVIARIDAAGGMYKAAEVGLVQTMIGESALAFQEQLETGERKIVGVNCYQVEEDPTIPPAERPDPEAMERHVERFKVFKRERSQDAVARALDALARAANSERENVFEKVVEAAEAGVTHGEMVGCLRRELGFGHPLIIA
T1 sequence (A7IQE6 1-148): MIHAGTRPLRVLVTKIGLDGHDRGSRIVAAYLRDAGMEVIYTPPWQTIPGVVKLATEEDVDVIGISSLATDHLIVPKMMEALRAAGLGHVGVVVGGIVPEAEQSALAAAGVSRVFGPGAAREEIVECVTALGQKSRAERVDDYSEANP

Ralstonia sp. ADH = biological target: T2, Ralstonia sp. ADH (Ralstonia sp. DSMZ 6428, UniProt C0IR58); assay: alcohol dehydrogenase assay, aldehyde reduction; type: biochemical; settings: reduction of pivaldehyde to pivalcohol
T2 sequence (C0IR58 1-249): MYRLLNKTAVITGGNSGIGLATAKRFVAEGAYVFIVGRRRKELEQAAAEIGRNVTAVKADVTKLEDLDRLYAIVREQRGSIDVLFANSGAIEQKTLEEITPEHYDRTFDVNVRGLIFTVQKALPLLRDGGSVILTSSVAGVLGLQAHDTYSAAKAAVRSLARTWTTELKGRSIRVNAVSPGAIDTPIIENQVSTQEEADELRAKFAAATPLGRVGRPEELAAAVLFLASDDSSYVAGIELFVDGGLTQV

Row | SMILES | mutase conversion assay in crude E. coli lysate [1] | alcohol dehydrogenase assay, aldehyde reduction (Ralstonia sp. ADH)
1 | CC(C)(C)C(=O)SCCNC(=O)CCNC(=O)[C@H](O)C(C)(C)COP(=O)(O)OP(=O)(O)OC[C@H]1O[C@@H](n2cnc3c(N)ncnc32)[C@H](O)[C@@H]1OP(=O)(O)O [pivalyl-CoA] | significant activity in converting isovaleryl-CoA to pivalyl-CoA in crude cell lysates | –
2 | CC(C)(C)C=O [pivaldehyde] | – | Ralstonia sp. ADH showed the highest activity toward pivaldehyde
3 | CC(C)CC(=O)SCCNC(=O)CCNC(=O)[C@H](O)C(C)(C)COP(=O)(O)OP(=O)(O)OC[C@H]1O[C@@H](n2cnc3c(N)ncnc32)[C@H](O)[C@@H]1OP(=O)(O)O [isovaleryl-CoA] | significant activity in converting isovaleryl-CoA to pivalyl-CoA in crude cell lysates | –
